The record followed here is US6638973B2, “Taxane formulations” (FSU Research Foundation, Inc., priority 2000, dated 2003).

Each structure is given as a SMILES string.

One experiment relates to HCT116 cells. Put plainly: In vitro cytotoxicity measured by the cell colony formation assay. The experiment is classed as cell-based. The following applies: HCT116 cells, 72 h drug incubation, colonies counted after 7 days; ID50 = drug concentration producing 50% inhibition of colony formation; read-out: IN VITRO ID 50 (nm) HCT116. Put shortly: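 Colony-forming survival was scored 7 days after a 72 h, 37 °C compound exposure followed by washout into fresh medium.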
As to `CC(=O)O[C@@]12CO[C@@H]1C[C@H](OC(=O)NC1CCCCC1)[C@@]1(C)C(=O)[C@H](O)C3=C(C)[C@@H](OC(=O)[C@H](O)[C@@H](NC(=O)OC(C)(C)C)c4ccco4)C[C@@](O)([C@@H](OC(=O)c4ccccc4)C12)C3(C)C` (stereo partly drawn) [Compound 5373], the IC50 was under 10 nM. `CCNC(=O)O[C@H]1C[C@H]2OC[C@@]2(OC(C)=O)C2[C@H](OC(=O)c3ccccc3)[C@]3(O)C[C@H](OC(=O)[C@H](O)[C@@H](NC(=O)OC(C)(C)C)c4ccco4)C(C)=C([C@@H](O)C(=O)[C@@]21C)C3(C)C` (stereo partly drawn) [Compound 5393]: the IC50 was under 1 nM. Still for that read-out and setting: next, `CC(=O)O[C@@]12CO[C@@H]1C[C@H](OC(=O)Nc1ccc(F)c(F)c1)[C@@]1(C)C(=O)[C@H](O)C3=C(C)[C@@H](OC(=O)[C@H](O)[C@@H](NC(=O)OC(C)(C)C)c4ccco4)C[C@@](O)([C@@H](OC(=O)c4ccccc4)C12)C3(C)C` (stereo partly drawn) [Compound 5415]: under 1 nM; `CC(=O)O[C@@]12CO[C@@H]1C[C@H](OC(=O)NC(C)(C)C)[C@@]1(C)C(=O)[C@H](O)C3=C(C)[C@@H](OC(=O)[C@H](O)[C@@H](NC(=O)OC(C)(C)C)c4ccco4)C[C@@](O)([C@@H](OC(=O)c4ccccc4)C12)C3(C)C` (stereo partly drawn) [Compound 5454]: under 10 nM.

Still in this experiment, the particulars now being: HCT116 cells, 72 h incubation with drug, colonies counted after 7 days; ID50 = drug concentration producing 50% inhibition of colony formation; read-out: IN VITRO ID 50 (nm) HCT116.
Regarding `CCOC(=O)O[C@H]1C(=O)[C@@]2(C)C([C@H](OC(=O)c3ccccc3)[C@]3(O)C[C@H](OC(=O)[C@H](O)[C@H](C=C(C)C)NC(=O)OCC(C)C)C(C)=C1C3(C)C)[C@]1(OC(C)=O)CO[C@@H]1C[C@@H]2O` (stereo partly drawn) [Compound 5155], the IC50 was under 10 nM. On the same count and under the same terms, the result for `CCOC(=O)O[C@H]1C[C@H]2OC[C@@]2(OC(C)=O)C2[C@H](OC(=O)c3ccccc3)[C@]3(O)C[C@H](OC(=O)[C@H](O)[C@@H](NC(=O)OC(C)(C)C)C4CC4)C(C)=C([C@@H](O)C(=O)[C@@]21C)C3(C)C` (stereo partly drawn) [Compound 5165] reads under 1 nM. On to `CCOC(=O)O[C@H]1C(=O)[C@@]2(C)C([C@H](OC(=O)c3ccccc3)[C@]3(O)C[C@H](OC(=O)[C@H](O)[C@@H](NC(=O)OC(C)(C)C)C4CC4)C(C)=C1C3(C)C)[C@]1(OC(C)=O)CO[C@@H]1C[C@@H]2O` (stereo partly drawn) [Compound 5171], for which the IC50 is under 1 nM.

For `COC(=O)O[C@H]1C[C@H]2OC[C@@]2(OC(C)=O)C2[C@H](OC(=O)c3ccccc3)[C@]3(O)C[C@H](OC(=O)[C@H](O)[C@@H](NC(=O)OCC(C)C)C4CC4)C(C)=C([C@@H](O)C(=O)[C@@]21C)C3(C)C` (stereo partly drawn) [Compound 5211], the IC50 is under 10 nM. Same read-out and setting: the result for `CCOC(=O)O[C@H]1C[C@H]2OC[C@@]2(OC(C)=O)C2[C@H](OC(=O)c3ccccc3)[C@]3(O)C[C@H](OC(=O)[C@H](O)[C@@H](NC(=O)OCC(C)C)C4CC4)C(C)=C([C@@H](O)C(=O)[C@@]21C)C3(C)C` (stereo partly drawn) [Compound 5225] reads under 10 nM; that for `CC(=O)O[C@@]12CO[C@@H]1C[C@H](OC(=O)OCc1ccccc1)[C@@]1(C)C(=O)[C@H](O)C3=C(C)[C@@H](OC(=O)[C@H](O)[C@@H](NC(=O)OC(C)(C)C)c4ccco4)C[C@@](O)([C@@H](OC(=O)c4ccccc4)C12)C3(C)C` (stereo partly drawn) [Compound 5433], under 1 nM; that for `CC(=O)O[C@@]12CO[C@@H]1C[C@H](OC(=O)OCc1ccccc1)[C@@]1(C)C(=O)[C@H](O)C3=C(C)[C@@H](OC(=O)[C@H](O)[C@@H](NC(=O)C=C(C)C)c4ccco4)C[C@@](O)([C@@H](OC(=O)c4ccccc4)C12)C3(C)C` (stereo partly drawn) [Compound 5466], under 1 nM.

The experiment is the same for the next values; noted with them: HCT116 colony formation; 72 h drug incubation, colonies counted after 7 days; Example 5, C-7 ester/C-10 hydroxy taxanes; read-out: IN VITRO ID 50 (nm) HCT116.
As for `C/C=C/C(=O)N[C@@H](c1ccsc1)[C@@H](O)C(=O)O[C@H]1C[C@@]2(O)[C@@H](OC(=O)c3ccccc3)C3[C@](C)(C(=O)[C@H](O)C(=C1C)C2(C)C)[C@@H](OC(=O)CCC)C[C@H]1OC[C@@]31OC(C)=O` (stereo partly drawn) [Compound 5030], the IC50 was under 1 nM. With `CCC(=O)O[C@H]1C[C@H]2OC[C@@]2(OC(C)=O)C2[C@H](OC(=O)c3ccccc3)[C@]3(O)C[C@H](OC(=O)[C@H](O)[C@@H](NC(=O)OC(C)(C)C)C4CC4)C(C)=C([C@@H](O)C(=O)[C@@]21C)C3(C)C` (stereo partly drawn) [Compound 5070], the IC50 is under 10 nM. In the case of `CCCC(=O)O[C@H]1C[C@H]2OC[C@@]2(OC(C)=O)C2[C@H](OC(=O)c3ccccc3)[C@]3(O)C[C@H](OC(=O)[C@H](O)[C@@H](NC(=O)OC(C)(C)C)C4CC4)C(C)=C([C@@H](O)C(=O)[C@@]21C)C3(C)C` (stereo partly drawn) [Compound 5080], the IC50 was under 1 nM. Same read-out and setting: the result for `CCC(=O)O[C@H]1C[C@H]2OC[C@@]2(OC(C)=O)C2[C@H](OC(=O)c3ccccc3)[C@]3(O)C[C@H](OC(=O)[C@H](O)[C@H](C=C(C)C)NC(=O)OCC(C)C)C(C)=C([C@@H](O)C(=O)[C@@]21C)C3(C)C` (stereo partly drawn) [Compound 5121] reads 21.1 nM; that for `CCCC(=O)O[C@H]1C[C@H]2OC[C@@]2(OC(C)=O)C2[C@H](OC(=O)c3ccccc3)[C@]3(O)C[C@H](OC(=O)[C@H](O)[C@H](C=C(C)C)NC(=O)OCC(C)C)C(C)=C([C@@H](O)C(=O)[C@@]21C)C3(C)C` (stereo partly drawn) [Compound 5131], under 10 nM; that for `CCC(=O)O[C@H]1C[C@H]2OC[C@@]2(OC(C)=O)C2[C@H](OC(=O)c3ccccc3)[C@]3(O)C[C@H](OC(=O)[C@H](O)[C@@H](NC(=O)OCC(C)C)C4CC4)C(C)=C([C@@H](O)C(=O)[C@@]21C)C3(C)C` (stereo partly drawn) [Compound 5191], under 10 nM. On the same count and under the same terms, next, `CCCC(=O)O[C@H]1C[C@H]2OC[C@@]2(OC(C)=O)C2[C@H](OC(=O)c3ccccc3)[C@]3(O)C[C@H](OC(=O)[C@H](O)[C@@H](NC(=O)OCC(C)C)C4CC4)C(C)=C([C@@H](O)C(=O)[C@@]21C)C3(C)C` (stereo partly drawn) [Compound 5202]: under 10 nM.

The same experiment, now with this note: HCT116 colony formation; 72 h drug incubation, colonies counted after 7 days; Example 10, C-10 ester/C-7 hydroxy taxanes; read-out: IN VITRO ID 50 (nm) HCT116.
Take `C/C=C/C(=O)N[C@@H](c1ccsc1)[C@@H](O)C(=O)O[C@H]1C[C@@]2(O)[C@@H](OC(=O)c3ccccc3)C3[C@](C)(C(=O)[C@H](OC(=O)C4CC4)C(=C1C)C2(C)C)[C@@H](O)C[C@H]1OC[C@@]31OC(C)=O` (stereo partly drawn) [Compound 5040]: the IC50 was under 1 nM. The same measure, in the same setting: the result for `CCC(=O)O[C@H]1C(=O)[C@@]2(C)C([C@H](OC(=O)c3ccccc3)[C@]3(O)C[C@H](OC(=O)[C@H](O)[C@H](C=C(C)C)NC(=O)OCC(C)C)C(C)=C1C3(C)C)[C@]1(OC(C)=O)CO[C@@H]1C[C@@H]2O` (stereo partly drawn) [Compound 5065] reads under 10 nM; that for `CCCC(=O)O[C@H]1C(=O)[C@@]2(C)C([C@H](OC(=O)c3ccccc3)[C@]3(O)C[C@H](OC(=O)[C@H](O)[C@H](C=C(C)C)NC(=O)OCC(C)C)C(C)=C1C3(C)C)[C@]1(OC(C)=O)CO[C@@H]1C[C@@H]2O` (stereo partly drawn) [Compound 5144], under 10 nM. The same measure, in the same setting: next, `CC(=O)O[C@@]12CO[C@@H]1C[C@H](O)[C@@]1(C)C(=O)[C@H](OC(=O)C3CC3)C3=C(C)[C@@H](OC(=O)[C@H](O)[C@@H](NC(=O)OCC(C)C)C4CC4)C[C@@](O)([C@@H](OC(=O)c4ccccc4)C12)C3(C)C` (stereo partly drawn) [Compound 5232]: under 10 nM.

Still in this experiment, the particulars now being: HCT116 colony formation; 72 h drug incubation, colonies counted after 7 days; Example 15, C-7 substituted acetate/C-10 hydroxy taxanes; read-out: IN VITRO ID 50 (nm) HCT116.
With `COCC(=O)O[C@H]1C[C@H]2OC[C@@]2(OC(C)=O)C2[C@H](OC(=O)c3ccccc3)[C@]3(O)C[C@H](OC(=O)[C@H](O)[C@@H](NC(=O)OC(C)(C)C)c4ccco4)C(C)=C([C@@H](O)C(=O)[C@@]21C)C3(C)C` (stereo partly drawn) [Compound 5445], the IC50 is under 1 nM. As for `COCC(=O)O[C@H]1C[C@H]2OC[C@@]2(OC(C)=O)C2[C@H](OC(=O)c3ccccc3)[C@]3(O)C[C@H](OC(=O)[C@H](O)[C@@H](NC(=O)C=C(C)C)c4ccco4)C(C)=C([C@@H](O)C(=O)[C@@]21C)C3(C)C` (stereo partly drawn) [Compound 5474], the IC50 was under 1 nM.
